Results from patent publication US20230286973A1, “PROTEIN SECRETION INHIBITORS” (KEZAR LIFE SCIENCES, priority 2020, published 2023).
Read-outs that look alike come from different tables or passages of the source.

Key:
[1] = Liver Microsome Stability Assay (rat); conditions: rat liver microsomes, with NADPH, 1.0 uM compound
Experimental: (§1) Stability of a compound was assessed in the presence of liver microsomes from various sources—mouse, rat, monkey and human liver microsomes. 1.0 uM compound, 0.4% DMSO in 0.1 M Potassium Phosphate with 1.0 mg/mL liver microsomes, were incubated at 37° C. with or without 1 mM NADPH. The samples were quenched at 0, and 30 minutes.

[2] = test system: TNFα-FL/Gaussia Luciferase; assay: Dox Induced TNFα-FL-Gluc Assay; format: cell-based; conditions: for IC50: 24 hr Dox induction, 293FRT/TO cells, read-out: 24 hr Dox Inducible TNFaFLGluc 293FRT/TO: Mean IC50; for 24 hr Dox Inducible TNFaFLGluc 293FRT/TO: TNF/PD1: ratio of TNFaFLGluc IC50 to PD1ssGluc IC50
Procedure, shortened: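 Compound was added with doxycycline to cells plated a day earlier, incubating at 37° C under 5% CO2. The reporter line is 293 T-REx expressing a TNFα (1-233)–Gaussia luciferase fusion under tetracycline-regulated control.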

[3] = Liver Microsome Stability Assay (human); conditions: human liver microsomes, with NADPH, 1.0 uM compound
Experimental: as §1

[4] = Liver Microsome Stability Assay (mouse); conditions: mouse liver microsomes, with NADPH, 1.0 uM compound
Experimental: as §1

[5] = Liver Microsome Stability Assay (monkey); conditions: monkey liver microsomes, with NADPH, 1.0 uM compound
Experimental: as §1

[6] = test system: PD1-ss+10aa/Gaussia Luciferase; assay: Dox-Induced PD1-ss-Gluc Assay; format: cell-based; conditions: 24 hr Dox induction, 293FRT/TO cells, read-out: 24 hr Dox Inducible PD1ssGluc 293FRT/TO: Mean IC50
Procedure, shortened: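 Stable Flp-In 293 T-REx cells carried a doxycycline-inducible construct of Gaussia luciferase fused to the PD1 signal sequence plus 10 amino acids. Cells were plated the day before, then treated with compound dilutions in DMSO/media containing doxycycline at 37 °C, 5% CO2.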

[7] = test system: IL-2-FL/Gaussia Luciferase; assay: Dox Induced IL2-FL-Gluc Assay; format: cell-based; conditions: for IC50: 24 hr Dox induction, 293FRT/TO cells, read-out: 24 hr Dox Inducible IL2FLGluc 293FRT/TO: Mean IC50; for 24 hr Dox Inducible IL2FLGluc 293FRT/TO: IL2/PD1: ratio of IL2FLGluc IC50 to PD1ssGluc IC50
Procedure, shortened: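 Compounds in DMSO/medium with doxycycline were applied to a 293 T-REx stable line expressing an IL-2 (aa 1-153)–Gaussia luciferase fusion under tetracycline-regulated control, cells seeded one day earlier; incubation at 37 °C, 5% CO2. Structures drawn without stereochemistry were tested as stereoisomer mixtures.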

[8] = test system: HER3-ss+4aa/Gaussia Luciferase; assay: Dox-Induced Her3-ss-Gluc Assay; format: cell-based; conditions: 24 hr Dox induction, 293FRT/TO cells, read-out: 24 hr Dox Inducible Her3(ss + 4)Gluc 293FRT/TO: Mean IC50
Procedure, shortened: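 Compounds were diluted in DMSO/media containing doxycycline. They were added to Flp-In 293 T-REx cells plated the previous day, then incubated at 37 °C under 5% CO2. These cells stably express, under T-REx control, Gaussia luciferase fused to the HER3 signal sequence plus 4 amino acids.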

[9] = test system: multiple myeloma cell line U266B1; assay: U266 Cell Viability Assay; format: cell-based, human; conditions: Homo sapiens, U-266, 48 h, U266B1 cells, Celltiter-Glo
Procedure, shortened: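 CellTiter-Glo luminescence was read after a 48 h compound exposure (37 °C, 5% CO2) of human U266B1 myeloma cells grown in 10% FBS-supplemented RPMI 1640. Data for structures shown without defined stereochemistry refer to stereoisomer mixtures.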

[10] = test system: multiple myeloma cell line NCI-H929; assay: H929 Cell Viability Assay; format: cell-based, human; conditions: Homo sapiens, NCI-H929, 48 h, NCI-H929 cells, Celltiter-Glo
Procedure, shortened: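 Luminescent CellTiter-Glo read-out of viability after a 48 h exposure (37° C, 5% CO2) of NCI-H929 myeloma cells to compound dilutions in RPMI 1640 plus 10% FBS. Data for structures drawn without stereochemistry refer to stereoisomer mixtures.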

[11] = '<=>' given where both are I.A.

Structure (SMILES)	Liver Microsome Stability (Multiple Species): Rat - % Remaining after 30 min w/NADPH [1] [%]	IC50 [2] [nM]	24 hr Dox Inducible TNFaFLGluc 293FRT/TO: TNF/PD1 [2]	Liver Microsome Stability (Multiple Species): Human - % Remaining after 30 min w/NADPH [3] [%]	Liver Microsome Stability (Multiple Species): Mouse - % Remaining after 30 min w/NADPH [4] [%]	Liver Microsome Stability (Multiple Species): Monkey - % Remaining after 30 min w/NADPH [5] [%]	IC50 [6] [nM]	IC50 [7] [nM]	24 hr Dox Inducible IL2FLGluc 293FRT/TO: IL2/PD1 [7]	IC50 [8] [nM]	EC50 [9] [nM]	EC50 [10] [nM]	IC50 ([2]; mean) [nM]	24 hr Dox Inducible TNFaFLGluc 293FRT/TO: TNF/PD1 [2, 11]	IC50 ([6]; mean) [nM]	IC50 ([7]; mean) [nM]	24 hr Dox Inducible IL2FLGluc 293FRT/TO: IL2/PD1 [7, 11]	IC50 ([8]; mean) [nM]
O=C(Nc1nc(/C=C/c2ncoc2C2CCCCC2)cs1)c1cccn1Cc1ccncc1 [Compound B52, (E)-N-(4-(2-(5-cyclohexyloxazol-4-yl)vinyl)thiazol-2-yl)-1-(pyridin-4-ylmethyl)-1H-pyrrole-2-carboxamide]	4.04	4840	190	5.82	32.1	10.8	25.5	2100	82	735	> 25000	15900	–	–	–	–	–	–
O=C(Nc1nc([C@H]2CCCN2c2ccc(OC3CN(C(=O)CO)C3)cc2)cs1)c1cccn1Cc1ccnc(F)c1 [Compound A110, (R)-1-((2-fluoropyridin-4-yl)methyl)-N-(4-(1-(4-((1-(2-hydroxyacetyl)azetidin-3-yl)oxy)phenyl)pyrrolidin-2-yl)thiazol-2-yl)-1H-pyrrole-2-carboxamide]	55.7	310	13.4	10.5	31.2	4.58	23.2	79.8	3.4	36.4	> 25000	884	–	–	–	–	–	–
CC(=O)NCCOc1ccc(N2CCC[C@@H]2c2csc(NC(=O)c3cccn3Cc3ccnc(F)c3)n2)cc1 [Compound A121, (R)-N-(4-(1-(4-(2-acetamidoethoxy)phenyl)pyrrolidin-2-yl)thiazol-2-yl)-1-((2-fluoropyridin-4-yl)methyl)-1H-pyrrole-2-carboxamide]	9.82	180	16.5	8.26	7.09	1.57	10.9	20.7	1.9	17.5	> 25000	447	–	–	–	–	–	–
N#Cc1ccccc1Cn1cccc1C(=O)Nc1nc([C@H]2CCCN2c2ccccc2)cs1 [Compound C86, (R)-1-(2-cyanobenzyl)-N-(4-(1-phenylpyrrolidin-2-yl)thiazol-2-yl)-1H-pyrrole-2-carboxamide]	20.2	–	–	27.3	43.5	15	–	–	–	–	> 25000	> 25000	> 25000	>8.38	2980	2380	0.8	1110
COCCCCn1cccc1C(=O)Nc1nc([C@H]2CCCN2c2ccccc2)cs1 [Compound C23, (R)-1-(4-methoxybutyl)-N-(4-(1-phenylpyrrolidin-2-yl)thiazol-2-yl)-1H-pyrrole-2-carboxamide]	8.52	–	–	15.8	12.7	4.38	–	–	–	–	> 25000	24100	> 25000	>4.91	5090	7650	1.5	17500
CN(C)C(=O)CCCCn1cccc1C(=O)Nc1nc([C@H]2CCCN2c2ccccc2)cs1 [Compound C60, (R)-1-(5-(dimethylamino)-5-oxopentyl)-N-(4-(1-phenylpyrrolidin-2-yl)thiazol-2-yl)-1H-pyrrole-2-carboxamide]	6.4	–	–	0.05	0.25	0.09	–	–	–	–	> 25000	> 25000	> 25000	>2.91	8590	> 25000	2.9	> 25000
O=C(Nc1nc(/C=C/c2ncc(F)cc2F)cs1)c1cccn1CC1CCOCC1 [Compound D2, (E)-N-(4-(2-(3,5-difluoropyridin-2-yl)vinyl)thiazol-2-yl)-1-((tetrahydro-2H-pyran-4-yl)methyl)-1H-pyrrole-2-carboxamide]	0.39	–	–	5.79	2.76	0.23	–	–	–	–	> 25000	> 23900	6090	15.3	397	> 13500	>34	1500
CC(C)c1cccc2nc(/C=C/c3csc(NC(=O)c4cccn4Cc4ccnc(F)c4)n3)cn12 [Compound B73, (E)-1-((2-fluoropyridin-4-yl)methyl)-N-(4-(2-(5-isopropylimidazo[1,2-a]pyridin-2-yl)vinyl)thiazol-2-yl)-1H-pyrrole-2-carboxamide]	3.87	> 25000	>51.4	0.81	1.62	0.48	486	> 25000	>51	> 25000	> 25000	> 25000	–	–	–	–	–	–
[2H]c1c([2H])c([2H])c(N2CCC[C@@H]2c2csc(NC(=O)c3cccn3Cc3ccnc(F)c3)n2)c([2H])c1[2H] [Compound A94, (R)-1-((2-fluoropyridin-4-yl)methyl)-N-(4-(1-(phenyl-d5)pyrrolidin-2-yl)thiazol-2-yl)-1H-pyrrole-2-carboxamide]	12.8	168	19.2	11.1	10.9	0.9	8.73	17.8	2	14.5	> 25000	642	–	–	–	–	–	–
